Laboratory results taken from patent publication US10858305B2, “Perillyl alcohol-3-bromopyruvate conjugate and methods of treating cancer” (NeOnc Technologies, Inc., priority 2016, dated 2020).
“Also recorded” adds a separate entry of the source. Where two headings read alike, the source gives them in different places.

Tests used:
[1] = system: HCT116 colon cancer cells; assay: LDH release assay in HCT116 cells; assay type: cell-based; conditions: Homo sapiens, HCT-116; HCT116, 16 hours; read-out: half-maximal effect, LDH assay
Description: (A) MTT assay was performed after 24 hours. […] (B) LDH assay was performed after […]. LDH release by untreated cells was set to 1. Relative fold increase is shown (n=3).
The capacity for rapid cell killing by NEO218 relative to 3-BP, POH and 3-BP+POH was evaluated via LDH assay, where LDH release is used as a proxy for cell death.
In FIG. 4, Panels (a) and (b), show the results of treating breast cancer cell lines with increasing concentrations of NEO218, 3-BP, or 3-BP mixed with POH. […] In all cases a-d, the release of LDH (as a marker of cell death) was measured after 24 hours.
Depending on the cell line, 2000 to 4000 cells per well were seeded in a volume of 50 μL into a 96-well plate. The next day, drugs ere added in an additional 50 μL of medium. At different time points (usually after 24 hours of incubation), 50 μL medium was removed and processed with the LDH Cytotoxicity Assay Kit (Thermo Fisher Scientific, Waltham, Mass.) according to the manufacturer's instructions. This kit measures extracellular LDH in culture medium using an enzymatic reaction that results in a red formazan product, which can be measured spectrophotometrically. The absorbance was measured at 490 and 680 nm. All LDH levels were normalized to untreated controls and presented as fold change of the controls.

[2] = system: HCT116 cells; assay: MTT assay with or without antioxidants NAC or GSH; assay type: cell-based, human; conditions: HCT116, MTT after 24 hours
Description: (A) HCT116 cells were treated with 40 μM 3-BP or NEO218 in the presence or absence of 1 mM NAC, 1 mM GSH, or 50 mM methyl-pyruvate (or sodium pyruvate, which produced similar outcomes). Cell viability was determined 24 hours later by MTT assay. (B) HCT116 cells were treated with 30 or 100 μM 3-BP or NEO218. After 30 minutes, cell lysates were prepared and analyzed for GAPDH activity. (C) Lysates from non-drug-treated MDA-MB-231 cells were mixed with 3-BP or NEO218 in the presence or absence of NAC or GSH at the concentrations mentioned in A. After 1 hour of incubation, GAPDH activity was determined. GAPDH activity in the absence of drug treatment was set at 100% (corresponding to 0.06 units/min×10^6 cells).
Tumor cells were treated with either NAC or GSH, in combination with NEO218 or 3-BP. HCT116 cells were treated with increasing concentrations of NEO218 and 3-BP (individually), in the presence or absence of 5 mM NAC or 1 mM GSH. After 24 hours, cell viability was determined by MTT assay.

[3] = system: HCT116 cells transfected with MCT-1 siRNA or scrambled control; assay: MTT assay in HCT116 cells after siRNA knockdown of MCT-1; assay type: cell-based; conditions: Homo sapiens
Description: HCT116 cells were transfected with siRNA targeted at MCT-1 (circles), or with a scrambled control (diamonds). (A) Cellular sensitivity to 3-BP and NEO218 was determined by MTT assay. Dotted lines and arrow show the shift in IC50. Note pronounced shift to the right in 3-BP-treated cells (left, panel), compared to a minor shift to the left in NEO218-treated cells (right panel). (B) Knockdown of MCT-1 protein levels was confirmed by Western blot analysis with actin as the loading control. (C) MCT-1 knockdown was also confirmed at the individual cell level by immunocytochemistry. The two photos were similarly overexposed in order to emphasize the pronounced difference in MCT-1 levels.
Methylthiazoletetrazolium (MTT) assays were performed as described earlier.
All siRNAs were purchased from Qiagen, Valencia, Calif. To knock down MCT1 expression, we used siRNA Hs_SLC16A1_6 (target sequence: 5′-[…]-3′). As a non-silencing control, we used AllStars Negative Control siRNA, which lacks homology to any known mammalian gene. One hundred thousand cells per well of a 6-well plate were transfected with 50 nM siRNA using jetPRIME transfection reagent and buffer (Polyplus Transfection, New York, N.Y.). Medium was changed after 24 hours and cells were subjected to experiments 72 hours after transfection. 2.10. Immunoblots

[4] = system: HCT116 3-BP survivors (MCT-1-negative) and parental cells; assay: Selection of 3-BP survivors from HCT116 cells and MTT chemosensitivity; assay type: cell-based, human
Description: (A) Immunostaining of HCT116 cells in the absence of any drug treatment (parental cells; left panel) and after 2-week recovery from highly toxic 48-hour treatment with 40 μM 3-BP (3-BP survivors; right panel). Arrows point to a few apparently MCT-1-negative cells among the otherwise MCT-1-positive parental population. Note preferential staining of the cell membrane in the positive cells, consistent with the known transmembrane location of MCT-1; no such staining could be detected in the 3-BP survivors. (B) Western blot analysis of MCT-1 expression levels two weeks after 48-hour treatment of cells with increasing concentrations of 3-BP. […] GAPDH was used as a loading control. (C) Chemosensitivity of 3-BP survivors were compared to parental cells in MTT assays. Both populations were treated with increasing concentrations of 3-BP or NEO218. Survival of untreated cells was set at 100% (n≥3±SE).
Upon closer inspection of individual cells by immunohistochemistry, we detected a small number of apparently MCT-1-negative cells among the otherwise mostly MCT-1-positive population (FIG. 20A). This aspect was investigated further by treating HCT116 cells with 40 μM, representing a concentration that reduces apparent viability by 75% in MTT assays (FIG. 17A) and blocks colony formation by 99% in CFAs. […] These cells, which we called 3-BP survivors, were further analyzed. Intriguingly, no MCT-1 expression could be detected in these cells, neither by immunohistochemistry (FIG. 20A) nor by Western blot (FIG. 20B). […] Intriguingly, NEO218 had no such effect.

O=C(O)C(=O)CBr [3-BP, 3-bromopyruvate] was tested, and the EC50 [1] was ~8 µM, the “effect of antioxidants NAC or GSH on drug-induced cell death” value [2] was “profound protection; also recorded: drug-induced cell death was completely prevented” and the IC50 ([3]; HCT-116, read-out: IC50 (MTT), HCT116, MCT-1 siRNA knockdown) was 67 µM. For the same compound, the IC50 ([3]; HCT-116, read-out: IC50 (MTT), HCT116, scrambled control siRNA) was 20 µM and the IC50 ([4]; Homo sapiens, HCT-116, read-out: IC50 (MTT)) was > 100 µM.

In the case of C=C(C)[C@@H]1CC=C(COC(=O)C(=O)CBr)CC1 [NEO218, 3-bromo-2-oxo-propionic acid 4-isopropenyl-cyclohex-1-enylmethyl ester], the EC50 [1] is reported as ~8 µM, the “effect of antioxidants NAC or GSH on drug-induced cell death” value [2] is reported as “antioxidant treatment similarly protected cells; also recorded: drug-induced cell death was completely prevented” and the IC50 ([3]; HCT-116, HCT116, MCT-1 siRNA knockdown, read-out: IC50 (MTT)) is reported as 15 µM. For the same compound, the IC50 ([3]; HCT-116, HCT116, scrambled control siRNA, read-out: IC50 (MTT)) was 19 µM, the “sensitivity of 3-BP survivors” value ([4]; 3-BP survivors of HCT116, MTT) was “retained their high sensitivity toward NEO218” and the “surviving cells after treatment” value ([4]; parental HCT116, 40 μM) was “did not leave any surviving cells”.
